pIC50: −log10 of the molar value. Calls of active or inactive are those of the source. The calls are words filed in the database; no cut-off is given here.

In experiment [1] the test system is HeLa. As to the kind of experiment: Induction of early apoptosis in human HeLa cells assessed as reduction in number of cells incubated for 24 hrs by hoechst staining based analysis. The note with it: dose <= 32.0 µM. It counts as functional, cell-based.
Experiment [2] has as its system HeLa. Put plainly: Inhibition of cell migration in human HeLa cells incubated at 24 hrs by crystal violet staining based transwell assay. Type of experiment: functional. The note with it: dose 2-8 µM.
Experiment [3] has as its system HeLa. Put plainly: Induction of apoptosis in human HeLa cells assessed as late apoptotic cells at 16 uM incubated for 24 hrs by flow cytometry (reference value: 4.37 %). Type of experiment: functional. (In general: A flow cytometer gives signals particle by particle.)
In a further experiment the test system is MDA-MB-231. Put plainly: Antiproliferative activity against human MDA-MB-231 cells incubated for 48 hrs by CCK8 assay. It counts as functional, cell-based. The note with it: MDA-MB-231, 48 h. (In general: Tetrazolium assays rely on reduction of a dye to a coloured formazan, in cell work by metabolically active cells.)
Experiment [4] concerns HeLa. Put plainly: Antiproliferative activity against human HeLa cells incubated for 48 hrs by CCK8 assay. Type of experiment: functional, cell-based.
The subject of experiment [5] is HeLa. Put plainly: Induction of apoptosis in human HeLa cells assessed as necrotic cells at 32 uM incubated for 24 hrs by flow cytometry (reference value: 1.10 %). Type of experiment: functional.
Experiment [6] deals with HeLa. Put plainly: Induction of apoptosis in human HeLa cells assessed as viable cells at 16 uM incubated for 24 hrs by flow cytometry (reference value: 66.3 %). It counts as functional. The note with it: read-out: Activity.
Experiment [7] concerns HeLa. As to the kind of experiment: Downregulation of ADMA expression in human HeLa cells incubated for 48 hrs by Western blot analysis. Type of experiment: functional, cell-based. The note with it: dose 2-8 µM. In general terms: A western blot detects proteins with antibodies after separation by electrophoresis.
Experiment [8] relates to HeLa. As to the kind of experiment: Induction of apoptosis in human HeLa cells assessed as early apoptotic cells at 32 uM incubated for 24 hrs by flow cytometry (reference value: 28.2 %). Type of experiment: functional.
Experiment [9] relates to HeLa. As to the kind of experiment: Induction of early apoptosis in human HeLa cells assessed as nuclear fragmentation incubated for 24 hrs by hoechst staining based analysis. Type of experiment: functional, cell-based. The conditions noted are these: dose <= 32.0 µM.
Experiment [10] concerns HeLa. Put plainly: Induction of apoptosis in human HeLa cells assessed as necrotic cells at 16 uM incubated for 24 hrs by flow cytometry (reference value: 1.10 %). Type of experiment: functional.
Experiment [11] concerns HeLa. As to the kind of experiment: Effect on SDMA expression in human HeLa cells at 2 to 8 uM incubated for 48 hrs by Western blot analysis. It counts as functional, cell-based. The note with it: dose 2-8 µM.
The test system of the next experiment is A549. Put plainly: Antiproliferative activity against human A549 cells incubated for 48 hrs by CCK8 assay. It counts as functional, cell-based. The note with it: A549, 48 h.
The subject of experiment [12] is HeLa. Put plainly: Induction of early apoptosis in human HeLa cells assessed as nuclear edge fusion incubated for 24 hrs by hoechst staining based analysis. Type of experiment: functional, cell-based. The note with it: dose <= 32.0 µM.
The test system of experiment [13] is HeLa. As to the kind of experiment: Induction of apoptosis in human HeLa cells assessed as early apoptotic cells at 8 uM incubated for 24 hrs by flow cytometry (reference value: 28.2 %). Type of experiment: functional.
In experiment [14] the target is Protein arginine N-methyltransferase 5 (Homo sapiens) (UniProt O14744). As to the kind of experiment: Inhibition of PRMT5 (unknown origin) using SAM as substrate incubated for 60 mins by chemiluminescence based assay.
Experiment [15] has as its system HeLa. As to the kind of experiment: Downregulation of MMP2 expression in human HeLa cells incubated for 48 hrs by Western blot analysis. Type of experiment: functional, cell-based. The conditions noted are these: dose 2-8 µM.
In experiment [16] the test system is HeLa. Put plainly: Downregulation of N-Cadherin expression in human HeLa cells incubated for 48 hrs by Western blot analysis. The conditions noted are these: dose 2-8 µM. Type of experiment: functional, cell-based.
Experiment [17] has as its system HeLa. As to the kind of experiment: Downregulation of pro-caspase 9 expression in human HeLa cells incubated for 48 hrs by Western blot analysis. The conditions noted are these: dose 2-8 µM. It counts as functional, cell-based.
Experiment [18] has as its system HeLa. Put plainly: Induction of apoptosis in human HeLa cells assessed as necrotic cells at 8 uM incubated for 24 hrs by flow cytometry (reference value: 1.10 %). Type of experiment: functional.
In experiment [19] the test system is HeLa. Put plainly: Induction of apoptosis in human HeLa cells assessed as late apoptotic cells at 32 uM incubated for 24 hrs by flow cytometry (reference value: 4.37 %). Type of experiment: functional.
Experiment [20] has as its system HeLa. Put plainly: Inhibition of cell migration in human HeLa cells incubated upto 48 hrs by scratch wound healing assay. The conditions noted are these: dose 2-8 µM. It counts as functional, cell-based.
In the next experiment the test system is HepG2. As to the kind of experiment: Antiproliferative activity against human HepG2 cells incubated for 48 hrs by CCK8 assay. The note with it: HepG2, 48 h. Type of experiment: functional, cell-based.
Experiment [21] has as its target T1, Protein arginine N-methyltransferase 1 (Homo sapiens, UniProt Q99873). Put plainly: Displacement of [3H]SAM from PRMT1 (unknown origin) at 10 uM preincubated for 15 mins followed by [3H]SAM addition measured after 60 mins by radiometric/luminescence based assay relative to control. The note with it: time 75.0 min.
Target sequence in this assay (Q99873 whole entry, looked up): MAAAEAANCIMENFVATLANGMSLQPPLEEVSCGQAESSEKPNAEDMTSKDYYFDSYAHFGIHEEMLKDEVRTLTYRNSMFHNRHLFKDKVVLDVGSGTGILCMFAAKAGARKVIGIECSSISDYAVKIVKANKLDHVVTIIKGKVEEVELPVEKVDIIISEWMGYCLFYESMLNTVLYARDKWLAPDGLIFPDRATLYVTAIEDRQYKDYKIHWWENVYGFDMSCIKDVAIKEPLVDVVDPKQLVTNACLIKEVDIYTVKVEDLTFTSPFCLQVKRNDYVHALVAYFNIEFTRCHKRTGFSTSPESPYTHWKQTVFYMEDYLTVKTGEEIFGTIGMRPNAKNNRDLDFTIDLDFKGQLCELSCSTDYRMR
Experiment [22] deals with T1, Protein arginine N-methyltransferase 1. Put plainly: Displacement of [3H]SAM from PRMT1 (unknown origin) preincubated for 15 mins followed by [3H]SAM addition measured after 60 mins by radiometric/luminescence based assay.
Target sequence in this assay (Q99873 whole entry): as the sequence (Q99873 whole entry, looked up) above
For experiment [23], the system named is HeLa. Put plainly: Induction of apoptosis in human HeLa cells assessed as late apoptotic cells at 8 uM incubated for 24 hrs by flow cytometry (reference value: 4.37 %). Type of experiment: functional.
Experiment [24] relates to HeLa. Put plainly: Induction of early apoptosis in human HeLa cells assessed as dense nuclei incubated for 24 hrs by hoechst staining based analysis. The conditions noted are these: dose <= 32.0 µM. It counts as functional, cell-based.
For experiment [25], the system named is HeLa. Put plainly: Effect on PRMT1 expression in human HeLa cells at 2 to 8 uM incubated for 48 hrs by Western blot analysis. The note with it: dose 2-8 µM. It counts as functional, cell-based.
The test system of experiment [26] is HeLa. Put plainly: Induction of apoptosis in human HeLa cells assessed as viable cells at 32 uM incubated for 24 hrs by flow cytometry (reference value: 66.3 %). Type of experiment: functional. The conditions noted are these: read-out: Activity.
In experiment [27] the test system is HeLa. Put plainly: Induction of apoptosis in human HeLa cells assessed as early apoptotic cells at 16 uM incubated for 24 hrs by flow cytometry (reference value: 28.2 %). Type of experiment: functional.
Experiment [28] has as its system HeLa. Put plainly: Induction of apoptosis in human HeLa cells assessed as viable cells at 8 uM incubated for 24 hrs by flow cytometry (reference value: 66.3 %). It counts as functional. The note with it: read-out: Activity.
Experiment [29] relates to HeLa. As to the kind of experiment: Downregulation of DDAH expression in human HeLa cells at 2 to 8 uM incubated for 48 hrs by Western blot analysis. It counts as functional, cell-based. The note with it: dose 2-8 µM.

Sequence of Protein arginine N-methyltransferase 5 (Homo sapiens) (O14744 whole entry): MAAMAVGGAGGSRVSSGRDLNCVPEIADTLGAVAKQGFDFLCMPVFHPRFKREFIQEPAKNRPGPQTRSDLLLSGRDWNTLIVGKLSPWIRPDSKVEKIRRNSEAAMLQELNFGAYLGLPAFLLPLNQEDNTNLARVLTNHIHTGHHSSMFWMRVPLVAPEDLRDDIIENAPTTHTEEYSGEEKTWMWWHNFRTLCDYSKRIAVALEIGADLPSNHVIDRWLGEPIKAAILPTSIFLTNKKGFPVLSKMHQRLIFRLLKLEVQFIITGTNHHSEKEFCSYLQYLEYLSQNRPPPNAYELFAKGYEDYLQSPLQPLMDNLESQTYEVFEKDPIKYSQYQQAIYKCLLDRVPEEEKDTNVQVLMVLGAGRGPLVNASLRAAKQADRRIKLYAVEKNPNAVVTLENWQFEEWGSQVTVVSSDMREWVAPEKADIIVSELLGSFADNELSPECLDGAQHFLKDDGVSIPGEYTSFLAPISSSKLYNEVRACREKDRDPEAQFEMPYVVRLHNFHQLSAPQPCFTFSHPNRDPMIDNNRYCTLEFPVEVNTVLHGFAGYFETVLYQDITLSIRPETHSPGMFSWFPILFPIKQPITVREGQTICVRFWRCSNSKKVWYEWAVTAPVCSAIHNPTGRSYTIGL

Take `CNCCN(C)Cc1sc(-c2ccc(OC)cc2)nc1-c1ccc(OC)cc1.Cl`: the Activity result with HeLa [1] was “Dose-Dependent Effect”; with HeLa [3], 17.5%; with HeLa [5], 0.97%; in the experiment with HeLa [7], “Dose-Dependent Effect”; in the experiment on HeLa [8], 64.8%; in the experiment on HeLa [9], “Dose-Dependent Effect”. Also, the Activity in the experiment on HeLa [10] was 1.33%; in the experiment on HeLa [12], “Dose-Dependent Effect”; in the experiment with HeLa [13], 35.9%; in the experiment with HeLa [15], “Dose-Dependent Effect”; in the experiment on HeLa [16], “Dose-Dependent Effect”; in the experiment on HeLa [18], 1.33%. Also, the Activity in the experiment on HeLa [19] is 22.9%; in the experiment on HeLa [23], 6.65%; with HeLa [24] it was “Dose-Dependent Effect”; with HeLa [27], 51.9%. Further, the inhibition (usually the change of the read-out against control, counted positive when it falls) with HeLa [2] is “Dose-Dependent Effect”; in experiment [14] it was 2.52%; with HeLa [20] it was “Dose-Dependent Effect”; in experiment [21], 60%. Besides, the pIC50 (in general, −log10 of the IC50, conventionally taken in molar units) in the experiment on MDA-MB-231 was 4.77; with HeLa [4], 5.03; in the experiment with A549, 4.74; in the experiment on HepG2 it was 4.79; in experiment [22], 4.93. The viability at 16 µM in the experiment on HeLa [6] stood at 29.3%. For the same compound, the result with HeLa [11] and in the experiment on HeLa [25] was inactive. For the same compound, the outcome in the experiment on HeLa [17] and with HeLa [29] was Active. The viability at 32 µM in the experiment with HeLa [26] is 11.3%. The viability at 8 µM in the experiment with HeLa [28] amounted to 56.2%.

Compound `CNCCNCc1sc(-c2ccc(OC)cc2)nc1-c1ccc(OC)cc1` had an inhibition in [21] of 7%.

On to `CNCCN(C)Cc1sc(-c2cccc(OC)c2)nc1-c1ccc(OC)cc1`, for which the inhibition in experiment [21] turned out to be 43%.

For the compound `CNCCN(C)Cc1sc(-c2ccc(N3CCOCC3)cc2)nc1-c1ccc(OC)cc1`, the pIC50 with MDA-MB-231 is 4.50; in the experiment on HeLa [4] it was 4.71; in the experiment on A549, 4.47; in the experiment with HepG2, 4.70; in [22], 5.15. In addition, the inhibition in experiment [14] is 6%; in experiment [21], 56%.

As for `CNCCN(C)Cc1sc(-c2cccc(OC(F)(F)F)c2)nc1-c1ccc(OC)cc1`, the inhibition in [21] is 21%.

On to `CNCCN(C)Cc1sc(-c2ccc(OC(F)(F)F)cc2)nc1-c1cccc(OC)c1`, for which, in experiment [21], the inhibition worked out at 35%.

`CNCCN(C)Cc1sc(-c2cccc(N3CCOCC3)c2)nc1-c1ccc(OC)cc1` returned an inhibition in [21] of 30%.

Regarding `CNCCN(C)Cc1sc(-c2cccc(OC(F)(F)F)c2)nc1-c1cccc(OC)c1`, in experiment [21], the inhibition is 31%.

The compound `N=C(N)c1ccc(-c2ccc(-c3ccc(C(=N)N)cc3)o2)cc1` yielded an inhibition in experiment [21] of 98.1%.

In [21], `CNCCN(C)Cc1sc(-c2ccc(OC(F)(F)F)cc2)nc1-c1ccc(OC)cc1` came in with an inhibition of 39%.

The values above are taken from ChEMBL document CHEMBL5325502, “Discovery of 2,4-diphenyl-substituted thiazole derivatives as PRMT1 inhibitors and investigation of their anti-cervical cancer effects” (Bioorg Med Chem, 2023).
